Assay results: patent publication US20230373940A1, “CARBOXYLIC DIARYLTHIAZEPINEAMINES AND USES THEREOF” (Kures, Inc., priority 2020, published 2023)
Structures can show the parent of a compound that is named as a salt.

Legend:
[1] = target: T1, human mu opioid receptor (MOR) (Homo sapiens, UniProt P35372); experiment: BRET assay measuring G protein activation, agonist activity at human MOR (transfected HEK-293T cells); assay type: cell-based; details: for MOR potency relative to analogs lacking substitution at position 2: dihalo-substituted core
T1 construct: expressed in transfected cells; host or cells: HEK-293T
T1 sequence (P35372 whole entry): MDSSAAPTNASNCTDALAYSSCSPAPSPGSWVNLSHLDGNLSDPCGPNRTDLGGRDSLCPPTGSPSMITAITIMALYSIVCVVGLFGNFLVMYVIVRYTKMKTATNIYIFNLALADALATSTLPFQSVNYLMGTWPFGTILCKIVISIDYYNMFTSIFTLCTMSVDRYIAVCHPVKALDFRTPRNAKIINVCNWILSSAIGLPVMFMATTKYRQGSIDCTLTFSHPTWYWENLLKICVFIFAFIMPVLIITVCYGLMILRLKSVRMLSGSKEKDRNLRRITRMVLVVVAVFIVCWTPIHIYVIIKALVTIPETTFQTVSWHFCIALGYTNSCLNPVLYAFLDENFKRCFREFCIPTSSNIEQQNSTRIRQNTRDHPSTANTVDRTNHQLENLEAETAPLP
Description: (§1) The diarylthiazepinamine carboxylic acids (9) were tested for agonist activity at the human mu opioid receptor (MOR) and delta opioid receptor (DOR) using bioluminescence resonance energy transfer (BRET) assays measuring G protein activation as previously described (Table 1) (Rives, M.-L. et al. 2012; Negri, A. et al. 2013).
(§2) Transfection. Human MOR cDNA was transfected alongside […] with RLuc8 inserted at position 91 (GαoB-RLuc8), Gβ1 (β1), and Gγ2 fused to the full-length mVenus at its N terminus (mVenus-γ2) into HEK-293T cells (5×10^6 cells/plate) in 10-cm dishes using PEI (Polysciences Inc.; Warrington, PA) in a 1:1 ratio diluted in Opti-MEM (Life Technologies Corp.; Grand Island, NY) to assay for G protein activation as described previously (Rives, M.-L. et al. 2012; Negri, A. et al. 2013). Cells were maintained in Dulbecco's Modified Eagle Medium (high glucose #11965; Life Technologies) supplemented with 10% FBS (Premium Select, Atlanta Biologicals; Atlanta, GA) and 100 U/mL penicillin and 100 μg/mL streptomycin (#15140, Life Technologies). After 24 hours the media was changed, and the experiment was performed 24 hours later (48 hours after transfection).
(§3) BRET. Transfected cells were dissociated and re-suspended in phosphate-buffered saline (PBS). Approximately 200,000 cells/well were added to a black-framed, white well 96-well plate (#60050; Perkin Elmer; Waltham, MA). The microplate was centrifuged and the cells were re-suspended in PBS. Then 5 μM of the luciferase substrate coelenterazine H was added to each well for 5 minutes. Following coelenterazine H addition, ligands were added and the BRET signal was measured at 5 minutes on a PHERAstar FS plate reader. Quantification of the BRET signal required calculating the ratio of the light emitted by the energy acceptor, mVenus (510-540 nm), over the light emitted by the energy donor, RLuc8 (485 nm). […] Dose response curves were fit using a three-parameter logistics equation in GraphPad Prism 6.
The additional diarylthiazepinamine carboxylic acids (9i, 9j, 9k, and 91) were tested for agonist activity at the human mu opioid receptor (MOR) using bioluminescence resonance energy transfer (BRET) assays measuring G protein activation (Table 2) as previously described (Rives, M.-L. et al. 2012; Negri, A. et al. 2013; Example 2 of the present application).

[2] = target: T2, human delta opioid receptor (DOR) (Homo sapiens, UniProt P41143); experiment: BRET assay measuring G protein activation, agonist activity at human DOR; assay type: cell-based
T2 construct: expressed in transfected cells
T2 sequence (P41143 whole entry): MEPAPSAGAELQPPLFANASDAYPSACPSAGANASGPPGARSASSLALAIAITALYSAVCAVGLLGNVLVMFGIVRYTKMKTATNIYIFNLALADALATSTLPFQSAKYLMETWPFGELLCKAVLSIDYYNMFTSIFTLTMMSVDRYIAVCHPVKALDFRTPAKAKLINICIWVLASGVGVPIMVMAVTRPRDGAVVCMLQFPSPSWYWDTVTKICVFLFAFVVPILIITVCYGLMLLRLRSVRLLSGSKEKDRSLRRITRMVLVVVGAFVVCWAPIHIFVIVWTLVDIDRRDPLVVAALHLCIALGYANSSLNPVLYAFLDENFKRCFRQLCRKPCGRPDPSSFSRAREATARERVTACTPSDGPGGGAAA
Description: as §1, §2, §3

[3] = Solubility Determination (Method A), distilled water, stirred 24 h; assay type: physicochemical
Description: Solubility Determination (Method A). A quantity of the appropriate compound sufficient to saturate the resulting solution was added to distilled water (0.50 mL) and the mixture was stirred vigorously for 24 h at room temperature (20° C.). The mixture was then centrifuged for 3 min. at 21,000×g and the stir bar was carefully removed. The mixture was then centrifuged again for 5 min. at 21,000×g and the supernatant was carefully removed by syringe and passed through a […] syringe filter. An aliquot (300 μL) of the filtered supernatant was concentrated in vacuo and the mass of the residual solids determined in order to calculate the solubility.

[4] = for Solubility, 100 mM HCl, pH 1 (mg/mL): pH 1, 25° C.
Description: Solubility Determination. Test compounds (4 mg) were added to 200 μL of one of the tested aqueous solutions (hereinafter—buffer): 100 mM aqueous HCl (pH 1) or 100 mM Na-phosphate buffer (pH 7). The obtained suspensions/solutions with the theoretical concentration of 20 mg/mL were further allowed to equilibrate at 25° C. on a thermostatic orbital shaker for 24 hours and then centrifuged at 6000 rpm for 4 minutes and filtered through HTS filter plates using a vacuum manifold. In parallel, compound dilutions in 50% acetonitrile/HCl and 30% acetonitrile/Na-phosphate buffer mixes were prepared to theoretical concentrations of 0 mg/mL (blank), 0.1 mg/mL, 0.2 mg/mL, and 0.4 mg/mL in duplicates to generate calibration curves falling within the optimum UV absorption range. The filtrates of test compounds were diluted 100-fold with acetonitrile-buffer mixtures before measuring. The filtered supernatant test samples were transferred to 96-well plates and measured for absorbance in the 200-550 nm range with 5 nm step increment. The concentrations of compounds in supernatants were calculated using the measured absorbance and the previously determined calibration curve. Proper absorbance wavelengths for calculations were selected for each compound manually based on absorbance maxima (absolute absorbance unit values for the minimum and maximum concentration points within 0-2.5 OD range).

male C57BL/6 mice = experiment: Analgesic activity in hot plate assay; assay type: in vivo, mouse; details: for ED50: Mus musculus, sc, hot plate 55° C., male C57BL/6 mice; for Analgesic activity in the mouse hot plate assay: much higher potency than tianeptine
Description: Analgesic Activity in Hot Plate Assay. Male C57BL/6 mice were timed for latency to jump on a hot-plate apparatus set to 55° C., using a 30 s cutoff to prevent tissue damage. Following a baseline test, animals were injected subcutaneously (s.c.) with escalating doses of drug and tested at […] (time of maximal effect). Dose-response curves were fit via nonlinear regression using GraphPad Prism (La Jolla, CA).

[5] = Solubility Determination (Method B), distilled water, orbital shaker 2 h; assay type: physicochemical; details: neutral unbuffered water, vs iodotianeptine
Description: Solubility Determination (Method B). A quantity of the appropriate compound sufficient to saturate the resulting solution was added to distilled water (0.50 mL) and the mixture agitated on an orbital shaker for 2 h at room temperature (20° C.). The mixture was then centrifuged for 5 min. at 21,000×g and the supernatant was carefully removed by syringe and passed through a […] syringe filter. An aliquot (300 μL) of the filtered supernatant was concentrated in vacuo and the mass of the residual solids determined in order to calculate the solubility.

MOR = MOR (Homo sapiens, UniProt P35372); details: Gassaway, M. M. et al. 2014; cited from earlier work
Sequence of MOR (P35372 whole entry): as the sequence (P35372 whole entry) above

DOR = DOR (Homo sapiens, UniProt P41143); details: Gassaway, M. M. et al. 2014; cited from earlier work
Sequence of DOR (P41143 whole entry): as the sequence (P41143 whole entry) above

[6] = average of 2 independent trials

## CN1c2ccccc2C(NCCCCCCCC(=O)O)c2ccc(I)cc2S1(=O)=O (racemic) [Compound 9e, 8-((3-Iodo-6-methyl-5,5-dioxido-6,11-dihydrodibenzo[c,f][1,2]thiazopin-11-yl)amino) octanoic acid hydrochloride salt]
[1]
  EC50: 24.2 ± 11 nM
[2]
  EC50: 724 ± 99 nM

## CN1c2ccccc2C(NCCCCCCCCCC(=O)O)c2ccc(I)cc2S1(=O)=O (racemic) [Compound 9g, 10-((3-Iodo-6-methyl-5,5-dioxido-6,11-dihydrodibenzo[c,f][1,2]thiazopin-11-yl)amino)decanoic acid hydrochloride salt]
[1]
  EC50: 26.6 ± 1.8 nM
[2]
  EC50: 262 ± 25 nM

## CN1c2ccccc2C(NCCCCCCC(=O)O)c2cc(F)c(Br)cc2S1(=O)=O.Cl (stereo not drawn) [Compound 9b, 7-((3-Bromo-2-fluoro-6-methyl-5,5-dioxido-6,11-dihydrodibenzo[c,f][1,2]thiazopin-11-yl)amino) heptanoic acid hydrochloride salt]
[1]
  MOR potency relative to analogs lacking substitution at position 2: equipotent or more potent
[3]; neutral unbuffered water, vs bromotianeptine
  Fold more soluble than analogous monohalo counterpart: 2-3 fold
[3]; neutral water, room temperature (20° C.), Method A, average of 2 independent trials
  Aqueous Solubility (mg/mL @ 20° C.): 9.8 mg/mL
[4]; [6]
  Solubility, 100 mM HCl, pH 1 (mg/mL): 1.1 mg/mL
[4]; pH 7, 25° C., average of 2 independent trials
  Solubility, 100 mM Na phosphate buffer, pH 7 (mg/mL): 0.84 mg/mL
Male C57BL/6 mice
  ED50: 5.1 mg/kg
  Analgesic activity in the mouse hot plate assay: potent analgesics

## CSc1ccc2c(c1)S(=O)(=O)N(C)c1ccccc1C2NCCCCCCC(=O)O (stereo not drawn) [Compound 9c, 7-((6-Methyl-3-(methylthio)-5,5-dioxido-6,11-dihydrodibenzo[c,f][1,2]thiazopin-11-yl)amino)heptanoic acid]
[2]
  Human DOR agonist type (partial / full agonist): partial agonist
[2]; FIG. 1
  DOR Emax relative to the control agonist DPDPE: lesser Emax than the control agonist DPDPE

## CN1c2ccccc2C(NCCCCCCC(=O)O)c2cc(Cl)c(Cl)cc2S1(=O)=O.Cl (stereo not drawn) [Compound 9i, 7-((2,3-dichloro-6-methyl-5,5-dioxido-6,11-dihydrodibenzo[c,f][1,2]thiazopin-11-yl)amino) heptanoic acid hydrochloride salt]
[1]
  MOR potency relative to analogs lacking substitution at position 2: equipotent or more potent

## CN1c2ccccc2C(NCCCCCCC(=O)O)c2cc(F)c(Cl)cc2S1(=O)=O.Cl (stereo not drawn) [Compound 9j, 7-((3-chloro-2-fluoro-6-methyl-5,5-dioxido-6,11-dihydrodibenzo[c,f][1,2]thiazopin-11-yl)amino) heptanoic acid hydrochloride salt]
[1]
  MOR potency relative to analogs lacking substitution at position 2: equipotent or more potent
[4]; pH 1
  Fold more soluble than monohalo counterpart at pH 1: 8 fold

## CN1c2ccccc2C(NCCCCCCC(=O)O)c2cc(F)c(I)cc2S1(=O)=O.Cl (stereo not drawn) [Compound 9k, 7-((2-fluoro-3-iodo-6-methyl-5,5-dioxido-6,11-dihydrodibenzo[c,f][1,2]thiazopin-11-yl)amino)heptanoic acid hydrochloride salt]
[1]
  MOR potency relative to analogs lacking substitution at position 2: equipotent or more potent
[5]
  Fold more soluble than analogous monohalo counterpart: 2-3 fold
Male C57BL/6 mice
  ED50: 1.7 mg/kg
  Analgesic activity in the mouse hot plate assay: potent analgesics

## CN1c2ccccc2C(NCCCCC(=O)O)c2cc(F)c(Br)cc2S1(=O)=O.Cl (stereo not drawn) [Compound 91, 5-((3-bromo-2-fluoro-6-methyl-5,5-dioxido-6,11-dihydrodibenzo[c,f][1,2]thiazepin-11-yl)amino) pentanoic acid hydrochloride salt]
[1]
  MOR potency relative to analogs lacking substitution at position 2: equipotent or more potent

## CCOC(=O)CCCCCCNC1c2ccccc2N(C)S(=O)(=O)c2cc(SC)ccc21 (stereo not drawn) [Ester Analog of 9c, Ethyl 7-((6-methyl-3-(methylthio)-5,5-dioxido-6,11-dihydrodibenzo[c,f][1,2]thiazepin-11-yl)amino)heptanoate]
[2]
  Human DOR agonist type (partial / full agonist): partial agonist

## CN1c2ccccc2C(NCCCCCCC(=O)[O-])c2ccc(Cl)cc2S1(=O)=O.[Na+] (stereo not drawn) [Tianeptine (Na salt), Tianeptine, reference compound]
Male C57BL/6 mice
  ED50: 15 mg/kg

## CN1c2ccccc2C(NCCCCCCC(=O)O)c2ccc(Cl)cc2S1(=O)=O (stereo not drawn) [Tianeptine, tianeptine]
MOR
  Agonist activity at the MOR (reported): full agonist
DOR
  Agonist activity at the DOR (reported): low potency agonist activity

## CN1c2ccccc2C(NCCCCCCC(=O)O)c2ccc(Br)cc2S1(=O)=O.Cl (stereo not drawn) [bromotianeptine, reference compound]
[4]; [6]
  Solubility, 100 mM HCl, pH 1 (mg/mL): <0.1 mg/mL

## CN1c2ccccc2C(NCCCCCCC(=O)O)c2ccc(I)cc2S1(=O)=O.Cl (stereo not drawn) [iodotianeptine, reference compound]
[4]; [6]
  Solubility, 100 mM HCl, pH 1 (mg/mL): <0.1 mg/mL
